Test system: NCI-N87 (human stomach cancer)
Test: Combination of Compound 1 and other antitumor agents (in vitro), CellTiter-Glo, median effect method
Format: cell-based
Method: The supplier of each reagent, the suppliers of tumor cell lines, the media used, and the numbers of cells to be inoculated are shown in the tables below.
The cells were inoculated at 20 μL/well to a 384-well culture plate (Corning Inc.). The plate inoculated with the cells were cultured in an incubator set to 37° C. and 5% CO2. On the day following inoculation, each of mixed solutions of Compound 1 and each other antitumor agent at varying combinations of concentrations was added to the cells. Specifically, 8 serial dilutions (including (0 nM)) of Compound 1 and 10 serial dilutions (including (0 nM)) of the other antitumor agent were prepared using Leibovitz's L-15 medium containing 10% FBS, or ATCC formulated RPMI-1640 medium containing 10% FBS. Drug solutions in which equal amounts of the respective serial dilutions of the compounds were dispensed were mixed at a ratio of 1:1 to prepare a total of 80 mixed drug solutions including every combination. Each of these mixed drug solutions was added at 5 μL/well (N=4) to the plate, followed by further culture for 3 days under conditions of 37° C. and 5% CO2.
Three days later, CellTiter-Glo™ 2.0 Reagent (Promega Corporation) was added thereto at 25 μL/well, and chemiluminescence was measured using a plate reader (EnSpire® Multimode Plate Reader, PerkinElmer Japan Co., Ltd.).
The enhancement of an effect by combined use of the drugs was evaluated according to a method known in the art (a method described in Trends Pharmacol. Sci., 4, 450-454, 1983 or Pharmacol Rev., 58 (3), 621-81, 2006).
An average value from 4 wells of each combination was calculated from the obtained data, and a cell survival rate normalized against a control supplemented with a medium containing a vehicle was calculated. A Fa (fraction of affect) value was calculated by subtracting the cell survival rate from 1. Median effect analysis software CalcuSyn 2.0 (CalcuSyn, Inc.) for calculation by the median effect method was used in the calculation of CI.
As for the combinations of the concentrations of both the drugs for calculating CI, a Fa value closer to 1 presumably means a concentration range in which one of the drugs had too strong an effect, and a Fa value closer to 0 presumably means a concentration range in which any of the drugs had too weak an effect. Since these concentration ranges were not appropriate for the discussion of a synergistic effect, combinations that satisfied 0.2 S Fa 0.8 were extracted from the combinations of the respective concentrations of Compound 1 and the other antitumor agent on the basis of the calculated Fa value.
An effect of combined use was determined as shown in the table below (Pharmacol Rev., 58 (3), p. 621-81, 2006).

[1] = Compound 1 3.70 nM + FdUrd 333333 nM, ratio 1:90000, NCI-N87
[2] = Compound 1 3.70 nM + Gemcitabine 1.37 nM, ratio 1:0.37, NCI-N87
[3] = Compound 1 3.70 nM + Gemcitabine 4.12 nM, ratio 1:1.1, NCI-N87
[4] = Compound 1 3.70 nM + Gemcitabine 12.3 nM, ratio 1:3.3, NCI-N87
[5] = Compound 1 3.70 nM + Gemcitabine 37.0 nM, ratio 1:10, NCI-N87
[6] = Compound 1 3.70 nM + Gemcitabine 111 nM, ratio 1:30, NCI-N87
[7] = Compound 1 3.70 nM + Gemcitabine 333 nM, ratio 1:90, NCI-N87
[8] = Compound 1 3.70 nM + Paclitaxel 1.85 nM, ratio 1:0.50, NCI-N87
[9] = Compound 1 3.70 nM + Paclitaxel 5.56 nM, ratio 1:1.5, NCI-N87
[10] = Compound 1 3.70 nM + Paclitaxel 16.7 nM, ratio 1:4.5, NCI-N87
[11] = Compound 1 3.70 nM + Trifluridine 12346 nM, ratio 1:3333, NCI-N87
[12] = Compound 1 3.70 nM + Trifluridine 37037 nM, ratio 1:10000, NCI-N87
[13] = Compound 1 3.70 nM + Trifluridine 111111 nM, ratio 1:30000, NCI-N87
[14] = Compound 1 11.1 nM + Cisplatin 687 nM, ratio 1:62, NCI-N87
[15] = Compound 1 11.1 nM + Cisplatin 2062 nM, ratio 1:186, NCI-N87
[16] = Compound 1 11.1 nM + Cisplatin 6185 nM, ratio 1:557, NCI-N87
[17] = Compound 1 11.1 nM + Cisplatin 18556 nM, ratio 1:1670, NCI-N87
[18] = Compound 1 11.1 nM + Cisplatin 55667 nM, ratio 1:5010, NCI-N87
[19] = Compound 1 11.1 nM + FdUrd 4115 nM, ratio 1:370, NCI-N87
[20] = Compound 1 11.1 nM + FdUrd 12346 nM, ratio 1:1111, NCI-N87
[21] = Compound 1 11.1 nM + FdUrd 37037 nM, ratio 1:3333, NCI-N87
[22] = Compound 1 11.1 nM + FdUrd 111111 nM, ratio 1:10000, NCI-N87
[23] = Compound 1 11.1 nM + FdUrd 333333 nM, ratio 1:30000, NCI-N87
[24] = Compound 1 11.1 nM + FdUrd 1000000 nM, ratio 1:90000, NCI-N87
[25] = Compound 1 11.1 nM + Paclitaxel 0.206 nM, ratio 1:0.019, NCI-N87
[26] = Compound 1 11.1 nM + Paclitaxel 0.617 nM, ratio 1:0.056, NCI-N87
[27] = Compound 1 11.1 nM + Paclitaxel 1.85 nM, ratio 1:0.17, NCI-N87
[28] = Compound 1 11.1 nM + Paclitaxel 5.56 nM, ratio 1:0.50, NCI-N87
[29] = Compound 1 11.1 nM + Trifluridine 4115 nM, ratio 1:370, NCI-N87
[30] = Compound 1 11.1 nM + Trifluridine 12346 nM, ratio 1:1111, NCI-N87
[31] = Compound 1 11.1 nM + Trifluridine 37037 nM, ratio 1:3333, NCI-N87
[32] = Compound 1 11.1 nM + Trifluridine 111111 nM, ratio 1:10000, NCI-N87
[33] = Compound 1 33.3 nM + Cisplatin 2062 nM, ratio I:62, NCI-N87
[34] = Compound 1 33.3 nM + FdUrd 12346 nM, ratio 1:370, NCI-N87
[35] = Compound 1 […] + Gemcitabine 4.12 nM, ratio 1:10, NCI-N87
[36] = Compound 1 […] + Gemcitabine 12.3 nM, ratio 1:30, NCI-N87
[37] = Compound 1 […] + Gemcitabine 37.0 nM, ratio 1:90, NCI-N87

Question: Which results are given for `C=CC(=O)N1CCC[C@@H](n2nc(C(=O)Nc3ccc(CC(=O)N(C)C)c(C)c3C)c3c(N)ncnc32)C1` [Compound 1, (R)-1-(1-acryloylpiperidin-3-yl)-4-amino-N-(4-(2-(dimethylamino)-2-oxoethyl)-2,3-dimethylphenyl)-1H-pyrazolo[3,4-d]pyrimidine-3-carboxamide]?
Answer: CI [1]: 0.47; Fa [1]: 0.62; CI [2]: 0.15; Fa [2]: 0.75; CI [3]: 0.12; Fa [3]: 0.77; CI [4]: 0.10; Fa [4]: 0.80; CI [5]: 0.11; Fa [5]: 0.78; CI [6]: 0.11; Fa [6]: 0.78; CI [7]: 0.12; Fa [7]: 0.77; CI [8]: 0.84; Fa [8]: 0.41; CI [9]: 0.42; Fa [9]: 0.64; CI [10]: 0.55; Fa [10]: 0.71; CI [11]: 0.51; Fa [11]: 0.57; CI [12]: 0.51; Fa [12]: 0.61; CI [13]: 0.51; Fa [13]: 0.67; CI [14]: 0.87; Fa [14]: 0.59; CI [15]: 0.71; Fa [15]: 0.64; CI [16]: 0.48; Fa [16]: 0.74; CI [17]: 0.50; Fa [17]: 0.77; CI [18]: 0.90; Fa [18]: 0.79; CI [19]: 0.79; Fa [19]: 0.61; CI [20]: 0.55; Fa [20]: 0.68; CI [21]: 0.58; Fa [21]: 0.67; CI [22]: 0.46; Fa [22]: 0.73; CI [23]: 0.52; Fa [23]: 0.75; CI [24]: 0.31; Fa [24]: 0.79; CI [25]: 0.58; Fa [25]: 0.69; CI [26]: 0.52; Fa [26]: 0.71; CI [27]: 0.61; Fa [27]: 0.69; CI [28]: 0.44; Fa [28]: 0.78; CI [29]: 0.79; Fa [29]: 0.69; CI [30]: 0.51; Fa [30]: 0.77; CI [31]: 0.63; Fa [31]: 0.74; CI [32]: 0.49; Fa [32]: 0.80; CI [33]: 0.73; Fa [33]: 0.80; CI [34]: 0.76; Fa [34]: 0.80; CI [35]: 0.21; Fa [35]: 0.68; CI [36]: 0.23; Fa [36]: 0.69; CI [37]: 0.02; Fa [37]: 0.71

Reference: patent publication US11696917B2, “Agent enhancing antitumor effect using pyrazolo[3,4-d]pyrimidine compound” (TAIHO PHARMACEUTICAL CO., LTD., priority 2017, dated 2023)
